These results are taken from patent US11590139B2, “Substituted aminopurine compounds, compositions thereof, and methods of treatment therewith” (Signal Pharmaceuticals, LLC, priority 2014, dated 2023).

Some results are limits rather than exact numbers.

For the first test, the system named is Lox-IMVI melanoma cell line. As to the kind of experiment: Lox-IMVI anti-proliferative assay (growth inhibition, Cell Titer-Glo). Type of test: cell-based, human. The conditions noted are these: Homo sapiens; IC50 activity level in the cell-based Lox-IMVI anti-proliferative assay; read-out: Activity. The gist of the method: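 Growth inhibition is assessed over 72 h in RPMI + 10% FBS at 0.2% DMSO, with ATP-based luminescence used as the viability measure. IC50 is fitted from normalized dose-response data.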
Take `NC(=O)[C@H]1CC[C@@H](n2c(Nc3c(F)cccc3F)nc3cnc(N[C@@H]4CC[C@@H](O)C4)nc32)CC1` [Example 209, (1S,4s)-4-(8-(2,6-difluorophenylamino)-2-((1R,3R)-3-hydroxycyclopentylamino)-9H-purin-9-yl)cyclohexanecarboxamide]: the IC50 was > 1000 nM.

In the case of `NC(=O)[C@H]1CC[C@@H](n2c(Nc3c(Cl)cc(F)cc3Cl)nc3cnc(N[C@H]4CCC[C@@H]4O)nc32)CC1` [Example 272, (1R,4s)-4-(8-(2,6-dichloro-4-fluorophenylamino)-2-((1S,2S)-2-hydroxycyclopentylamino)-9H-purin-9-yl)cyclohexanecarboxamide], the IC50 was > 1000 nM.

`NC(=O)[C@H]1CC[C@@H](n2c(Nc3c(F)cccc3F)nc3cnc(NC4CC(F)(F)C4)nc32)CC1` [Example 227, (1s,4s)-4-(2-(3,3-difluorocyclobutylamino)-8-(2,6-difluorophenylamino)-9H-purin-9-yl)cyclohexanecarboxamide]: the IC50 was > 1000 nM.

On to `NC(=O)[C@H]1CC[C@@H](n2c(Nc3c(F)cc(F)cc3F)nc3cnc(N[C@H]4CC[C@H](O)C4)nc32)CC1` [Example 331, (1R,4s)-4-(2-((1S,3S)-3-hydroxycyclopentylamino)-8-(2,4,6-trifluorophenylamino)-9H-purin-9-yl)cyclohexanecarboxamide], for which the IC50 was > 1000 nM.

`NC(=O)[C@H]1CC[C@@H](n2c(Nc3c(F)cc(Cl)cc3F)nc3cnc(N[C@H]4CCC[C@@H](O)C4)nc32)CC1` [Example 372, (1R,4s)-4-(8-(4-chloro-2,6-difluorophenylamino)-2-((1S,3R)-3-hydroxycyclohexylamino)-9H-purin-9-yl)cyclohexanecarboxamide]: the IC50 is > 1000 nM.

In the case of `CC(C)Nc1ncc2nc(Nc3c(F)ccc(F)c3F)n([C@H]3CC[C@@H](C(N)=O)CC3)c2n1` [Example 98, (1s,4s)-4-(2-(isopropylamino)-8-(2,3,6-trifluorophenylamino)-9H-purin-9-yl)cyclohexanecarboxamide], the IC50 was > 1000 nM.

As to `NC(=O)[C@H]1CC[C@@H](n2c(Nc3c(F)cc(Cl)cc3F)nc3cnc(N[C@H]4CCOC4)nc32)CC1` [Example 242, (1R,4s)-4-(8-(4-chloro-2,6-difluorophenylamino)-2-((S)-tetrahydrofuran-3-ylamino)-9H-purin-9-yl)cyclohexanecarboxamide], the IC50 lay in the range of 500 to 1000 nM.

Take `CC[C@@H](CO)Nc1ncc2nc(Nc3ccc(F)c(F)c3F)n([C@H]3CC[C@@H](C(N)=O)CC3)c2n1` [Example 151, (1R,4s)-4-(2-((S)-1-hydroxybutan-2-ylamino)-8-(2,3,4-trifluorophenylamino)-9H-purin-9-yl)cyclohexanecarboxamide]: the IC50 was > 1000 nM.

Regarding `NC(=O)[C@H]1CC[C@@H](n2c(Nc3c(F)cc(Cl)cc3F)nc3cnc(N[C@@H]4COC[C@H]4O)nc32)CC1` [Example 316, (1S,4s)-4-(8-(4-chloro-2,6-difluorophenylamino)-2-((3R,4S)-4-hydroxytetrahydrofuran-3-ylamino)-9H-purin-9-yl)cyclohexanecarboxamide], the IC50 was > 1000 nM.

Staying with this test, now noted: Homo sapiens; Lox-IMVI anti-proliferative assay, IC50 activity level; read-out: Activity.
For `C[C@]1(C(N)=O)CC[C@H](n2c(Nc3c(F)cc(Cl)cc3Cl)nc3cnc(N[C@@H]4CCC[C@H](O)C4)nc32)CC1` [Example 484, (1R,4r)-4-(8-(2,4-dichloro-6-fluorophenylamino)-2-((1R,3S)-3-hydroxycyclohexylamino)-9H-purin-9-yl)-1-methylcyclohexanecarboxamide], the IC50 was > 1000 nM.

Consider `NC(=O)[C@H]1CC[C@@H](n2c(Nc3c(F)cc(F)cc3Cl)nc3cnc(N[C@@H]4CCC(F)(F)C4)nc32)CC1` [Example 590, (1S,4s)-4-(8-(2-chloro-4,6-difluorophenylamino)-2-((R)-3,3-difluorocyclopentylamino)-9H-purin-9-yl)cyclohexanecarboxamide], for which the IC50 was < 250 nM.

Consider `C[C@@H]1COCC[C@H]1Nc1ncc2nc(Nc3c(Cl)cc(C#N)cc3Cl)n([C@H]3CC[C@@H](C(N)=O)CC3)c2n1` [Example 495, (1S,4s)-4-(8-(2,6-dichloro-4-cyanophenylamino)-2-((3S,4R)-3-methyltetrahydro-2H-pyran-4-ylamino)-9H-purin-9-yl)cyclohexanecarboxamide], for which the IC50 is < 250 nM.

Regarding `NC(=O)[C@H]1CC[C@@H](n2c(Nc3c(F)cc(F)cc3Cl)nc3cnc(N[C@@H]4CCCC[C@H]4O)nc32)CC1` [Example 466, (1S,4s)-4-(8-(2-chloro-4,6-difluorophenylamino)-2-((1R,2R)-2-hydroxycyclohexylamino)-9H-purin-9-yl)cyclohexanecarboxamide], the IC50 was > 1000 nM.

Turning to `C[C@H]1COCC[C@H]1Nc1ncc2nc(Nc3c(Cl)cc(Cl)cc3Cl)n([C@H]3CC[C@@H](C(N)=O)CC3)c2n1` [Example 501, (1S,4s)-4-(2-((3R,4R)-3-methyltetrahydro-2H-pyran-4-ylamino)-8-(2,4,6-trichlorophenylamino)-9H-purin-9-yl)cyclohexanecarboxamide], the IC50 lay in the range of 250 to 500 nM.

Take `C[C@]1(C(N)=O)CC[C@@H](n2c(Nc3c(Cl)cc(C#N)cc3Cl)nc3cnc(NC4CCCC4)nc32)CC1` [Example 561, (1s,4s)-4-(2-(cyclopentylamino)-8-(2,6-dichloro-4-cyanophenylamino)-9H-purin-9-yl)-1-methylcyclohexanecarboxamide]: the IC50 was < 250 nM.

For `NC(=O)[C@H]1CC[C@@H](n2c(Nc3c(F)cc(Cl)cc3Cl)nc3cnc(NC4CCCOCC4)nc32)CC1` (stereo partly drawn) [Example 537, (1s,4s)-4-(8-(2,4-dichloro-6-fluorophenylamino)-2-(oxepan-4-ylamino)-9H-purin-9-yl)cyclohexanecarboxamide], the IC50 was < 250 nM.

Regarding `NC(=O)[C@H]1CC[C@@H](n2c(Nc3c(F)cc(Cl)cc3F)nc3cnc(NC4CCCOCC4)nc32)CC1` (stereo partly drawn) [Example 540, (1s,4s)-4-(8-(4-chloro-2,6-difluorophenylamino)-2-(oxepan-4-ylamino)-9H-purin-9-yl)cyclohexanecarboxamide], the IC50 lay within 250 to 500 nM.

`C[C@]1(C(N)=O)CC[C@@H](n2c(Nc3c(F)cc(C#N)cc3F)nc3cnc(NC4CCOCC4)nc32)CC1` [Example 524, (1s,4s)-4-(8-(4-cyano-2,6-difluorophenylamino)-2-(tetrahydro-2H-pyran-4-ylamino)-9H-purin-9-yl)-1-methylcyclohexanecarboxamide]: the IC50 is < 250 nM.

With `C[C@]1(C(N)=O)CC[C@H](n2c(Nc3c(Cl)cc(C#N)cc3Cl)nc3cnc(NC4CCCC4)nc32)CC1` [Example 485, (1r,4r)-4-(2-(cyclopentylamino)-8-(2,6-dichloro-4-cyanophenylamino)-9H-purin-9-yl)-1-methylcyclohexanecarboxamide], the IC50 is 500 to 1000 nM.

Take `C[C@]1(C(N)=O)CC[C@@H](n2c(Nc3c(Cl)cc(Cl)cc3Cl)nc3cnc(N[C@@H]4CCC[C@H](O)C4)nc32)CC1` [Example 565, (1S,4s)-4-(2-((1R,3S)-3-hydroxycyclohexylamino)-8-(2,4,6-trichlorophenylamino)-9H-purin-9-yl)-1-methylcyclohexanecarboxamide]: the IC50 was < 250 nM.

The same test, now with this note: Homo sapiens; Lox-IMVI melanoma cell line, anti-proliferative assay; read-out: Activity (IC50 activity level).
`NC(=O)[C@H]1CC[C@@H](n2c(Nc3c(F)cc(F)cc3F)nc3cnc(N[C@@H]4CCCN(Cc5ccccc5)C4)nc32)CC1` [Example 756, (1S,4s)-4-(2-((R)-1-benzylpiperidin-3-ylamino)-8-(2,4,6-trifluorophenylamino)-9H-purin-9-yl)cyclohexanecarboxamide]: the IC50 is > 1000 nM.

In the case of `C[C@]1(C(N)=O)CC[C@@H](n2c(Nc3c(F)cc(C#N)cc3Cl)nc3cnc(N[C@H]4CCC[C@@H](O)C4)nc32)CC1` [Example 633, (1R,4s)-4-(8-(2-chloro-4-cyano-6-fluorophenylamino)-2-((1S,3R)-3-hydroxycyclohexylamino)-9H-purin-9-yl)-1-methylcyclohexanecarboxamide], the IC50 fell in the range of 500 to 1000 nM.

Regarding `NC(=O)[C@H]1CC[C@@H](n2c(Nc3c(F)cc(F)cc3Cl)nc3cnc(N[C@@H]4CCCN(C(=O)Nc5ccccc5)C4)nc32)CC1` [Example 778, (R)-3-(9-((1s,4S)-4-carbamoylcyclohexyl)-8-(2-chloro-4,6-difluorophenylamino)-9H-purin-2-ylamino)-N-phenylpiperidine-1-carboxamide], the IC50 was > 1000 nM.

With `COC(=O)N1CCC[C@@H](Nc2ncc3nc(Nc4c(Cl)cc(C#N)cc4Cl)n([C@H]4CC[C@@H](C(N)=O)CC4)c3n2)C1` [Example 708, (R)-methyl 3-(9-((1s,4S)-4-carbamoylcyclohexyl)-8-(2,6-dichloro-4-cyanophenylamino)-9H-purin-2-ylamino)piperidine-1-carboxylate], the IC50 lay within 250 to 500 nM.

Turning to `N#Cc1cc(F)c(Nc2nc3cnc(N[C@@H]4CCC(F)(F)C4)nc3n2[C@H]2CC[C@@H](C(N)=O)CC2)c(Cl)c1` [Example 698, (1S,4s)-4-(8-(2-chloro-4-cyano-6-fluorophenylamino)-2-((R)-3,3-difluorocyclopentylamino)-9H-purin-9-yl)cyclohexanecarboxamide], the IC50 was < 250 nM.

Turning to `CNC(=O)N1CCC[C@@H](Nc2ncc3nc(Nc4c(F)cc(Cl)cc4Cl)n([C@H]4CC[C@@H](C(N)=O)CC4)c3n2)C1` [Example 706, (R)-3-(9-((1s,4S)-4-carbamoylcyclohexyl)-8-(2,4-dichloro-6-fluorophenylamino)-9H-purin-2-ylamino)-N-methylpiperidine-1-carboxamide], the IC50 is > 1000 nM.

Staying with this test, now noted: Lox-IMVI anti-proliferative assay, IC50 activity level; read-out: Activity.
For the molecule “(R)-methyl 3-(9-((1s,4S)-4- carbamoylcyclohexyl)-8-(2,3,4- trifluorophenylamino)-9H-purin-2- ylamino)piperidine-1-carboxylate [Example 414]”, the IC50 is > 1000 nM.
